The text below walks through data of ChEMBL document CHEMBL1201862, “PubChem BioAssay data set” (2004).

Activity calls are given as the source filed them. Rule as the data show it, for most assays here: actives have a measured EC50 and inactives only a lower limit.

In assay [1] the target is T1, Polyadenylate-binding protein 1 (Homo sapiens, UniProt P11940). Briefly: PABP1 MLLE–PAM2 interaction inhibitors, dose response, miRNA deadenylation inhibitor project, biochemical, fluorescence polarization, Cy5-PAM2 peptide, secondary (AID 602260). The class given is functional. The following applies: read-out: IC50_Mean.
T1 sequence (P11940 whole entry): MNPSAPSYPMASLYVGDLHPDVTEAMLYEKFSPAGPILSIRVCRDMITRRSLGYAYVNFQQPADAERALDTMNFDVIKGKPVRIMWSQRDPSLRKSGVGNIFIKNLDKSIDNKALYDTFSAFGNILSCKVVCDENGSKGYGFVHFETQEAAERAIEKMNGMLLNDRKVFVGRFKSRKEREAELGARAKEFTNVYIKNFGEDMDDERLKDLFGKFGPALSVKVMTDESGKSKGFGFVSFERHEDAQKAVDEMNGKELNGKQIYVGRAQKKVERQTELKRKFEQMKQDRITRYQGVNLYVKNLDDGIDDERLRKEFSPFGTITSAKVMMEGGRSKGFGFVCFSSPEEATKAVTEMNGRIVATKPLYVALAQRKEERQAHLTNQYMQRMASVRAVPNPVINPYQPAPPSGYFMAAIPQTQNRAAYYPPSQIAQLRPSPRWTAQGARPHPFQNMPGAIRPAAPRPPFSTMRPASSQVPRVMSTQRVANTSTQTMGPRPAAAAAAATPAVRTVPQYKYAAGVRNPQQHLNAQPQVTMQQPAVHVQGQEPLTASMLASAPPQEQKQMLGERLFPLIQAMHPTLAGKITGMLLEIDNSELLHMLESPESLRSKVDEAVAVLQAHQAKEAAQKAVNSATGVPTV
The target of assay [2] is T1, Polyadenylate-binding protein 1. Briefly: PABP1 MLLE–PAM2 binding inhibitor potency, dose response, biochemical, fluorescence polarization, FITC-PAM2 peptide (AID 602259). The following applies: read-out: IC50_Mean. The class given is functional.
Assay [3] in a line: Luminescence Cell-Based Dose Response HTS to Identify Inhibitors of 5'UTR Stem-Loop Driven Prion Protein mRNA Translation in H4 Neuroglioblastoma Cells. [Related pubchem assays: 1827 (Project Summary), 1813 (Primary HTS)]. Type of assay: functional.
A short description of assay [4]: inhibitors of firefly luciferase expression or activity, dose response, H4 neuroglioma cells, luminescence (AID 1990). The class given is functional, cell-based.
Assay [5] in a line: inhibitors of SNCA 5'UTR-driven reporter translation, confirmation, H4 neuroglioma cells, luminescence (AID 1988). The class given is functional, cell-based.
A short description of assay [6]: Luminescence Cell-Based Dose Retest to Confirm Inhibitors of Cancer Stem Cells. [Related pubchem assays (depositor defined):AID2717, AID2721]. Type of assay: functional. The following applies: Homo sapiens.
Assay [7] can be described thus: inhibitors of intracellular T. cruzi replication, confirmation, NIH3T3 host cells, beta-gal luminescence (AID 2044).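 Also: intracellular parasites grown in NIH/3T3 mouse fibroblasts as host cells; luminescent beta-galactosidase reporter signal from transgenic T. cruzi replicating inside host cells; inhibitors lower the luminescence signal.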 The class given is functional, cell-based.
Assay [8] can be described thus: cytotoxicity toward NIH3T3 fibroblasts, dose response, counter-screen, cell-based, ATP luminescence, mouse fibroblasts (AID 2010).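 Also: cells exposed to compound for about 90 hours before reading.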 The class given is functional.
A short description of assay [9]: Luminescence Cell-Based Dose Response HTS to Identify Activators of Luciferase Translation or Activity in H4 […] Cells. [Related pubchem assays: 1829 (Project Summary), 1814 (Primary HTS)]. Type of assay: functional.
Another assay concerns H4. Briefly: Luminescence Cell-Based Dose Response HTS to Identify Activators of 5'UTR Stem-Loop Driven Prion Protein mRNA Translation in H4 Neuroglioblastoma Cells. [Related pubchem assays: 1829 (Project Summary), 1814 (Primary HTS)]. Conditions: Homo sapiens. Type of assay: functional.
The nature of assay [10]: Luminescence Cell-Based Dose Confirmation HTS to Identify Activators of 5'UTR Stem-Loop Driven Alpha-Synuclein mRNA Translation in H4 Neuroglioblastoma Cells. [Related pubchem assays: 1829 (Project Summary), 1814 (Primary HTS)]. The class given is functional.
The test system of assay [11] is BJ. Briefly: cells. Type of assay: functional, cell-based. The following applies: Homo sapiens.
Assay [12] relates to BJ. The assay can be described thus: cytotoxicity toward BJ-TERT fibroblasts, dose response, cell-based, RAS-independent, luminescence (AID 1933). Type of assay: functional. Conditions: Homo sapiens.
Assay [13] is described as follows: cytotoxicity toward DRD oncogenic fibroblasts, dose response, cell-based, non-viral oncogenic, luminescence (AID 1934). The class given is functional. Conditions: Homo sapiens.
The test system of assay [14] is BJ. Briefly: cytotoxicity toward BJ-TERT-LT-ST fibroblasts, dose response, cell-based, RAS-independent, luminescence (AID 1935).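 Also: BJ fibroblasts immortalized with TERT plus LT and ST oncogenes.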 Type of assay: functional. Conditions: Homo sapiens.
Assay [15] has as its target Luciferin 4-monooxygenase (Photinus pyralis, UniProt P08659). The assay can be described thus: firefly luciferase enzyme inhibitors, dose response, biochemical, luminescence (AID 1891).
The nature of assay [16]: Luminescence Cell-Based Dose Confirmation HTS to Identify Inhibitors of Platelet Dense Granule Release. [Related pubchem assays: 1663 (Primary HTS), 1678 (Summary of Project)]. Type of assay: functional.
For assay [17], the target named is T2, Corticotropin-releasing factor receptor 2/Corticotropin-releasing factor-binding protein (Homo sapiens, UniProt P24387+Q13324).
T2 sequence (Q13324 whole entry): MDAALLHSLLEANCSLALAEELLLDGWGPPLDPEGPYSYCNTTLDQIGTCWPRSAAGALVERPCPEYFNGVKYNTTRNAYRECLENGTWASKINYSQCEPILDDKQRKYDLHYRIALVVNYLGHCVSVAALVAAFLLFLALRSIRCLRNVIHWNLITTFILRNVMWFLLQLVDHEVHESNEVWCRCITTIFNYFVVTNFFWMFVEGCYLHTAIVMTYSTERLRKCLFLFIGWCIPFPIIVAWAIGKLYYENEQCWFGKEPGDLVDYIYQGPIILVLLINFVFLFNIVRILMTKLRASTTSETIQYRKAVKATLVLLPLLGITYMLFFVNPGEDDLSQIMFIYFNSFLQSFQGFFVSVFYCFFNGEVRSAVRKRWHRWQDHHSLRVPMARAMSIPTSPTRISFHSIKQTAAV
T2 sequence (P24387 whole entry): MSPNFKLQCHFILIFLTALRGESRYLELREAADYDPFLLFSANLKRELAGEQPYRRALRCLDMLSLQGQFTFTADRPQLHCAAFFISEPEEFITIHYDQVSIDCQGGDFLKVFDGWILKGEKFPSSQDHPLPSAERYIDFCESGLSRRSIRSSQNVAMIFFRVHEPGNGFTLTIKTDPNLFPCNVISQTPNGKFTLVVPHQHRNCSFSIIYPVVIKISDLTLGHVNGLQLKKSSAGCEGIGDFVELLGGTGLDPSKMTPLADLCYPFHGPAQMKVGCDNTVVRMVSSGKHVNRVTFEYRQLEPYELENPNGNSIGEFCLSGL
Briefly: activators of CRF receptor 2 with binding protein – uHTS hits, confirmation (AID 602473). The class given is functional. Conditions: read-out: EC50_Mean.

For another assay, the system named is H9c2. The assay can be described thus: cells. Type of assay: functional, cell-based. The following applies: Rattus norvegicus, H9c2, Myocardium.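 Also: confirmatory concentration-response retest of ultra-high-throughput screening hits for modulation of myocardial damage; cell death induced by hydrogen peroxide oxidative stress; compound pretreatment for 60 min then peroxide exposure for 2 h; potency is for protecting the cells against peroxide damage rather than for killing them.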
Another assay deals with T3, Streptokinase A (Streptococcus pyogenes serotype M1, UniProt P10520).
T3 sequence (P10520 whole entry): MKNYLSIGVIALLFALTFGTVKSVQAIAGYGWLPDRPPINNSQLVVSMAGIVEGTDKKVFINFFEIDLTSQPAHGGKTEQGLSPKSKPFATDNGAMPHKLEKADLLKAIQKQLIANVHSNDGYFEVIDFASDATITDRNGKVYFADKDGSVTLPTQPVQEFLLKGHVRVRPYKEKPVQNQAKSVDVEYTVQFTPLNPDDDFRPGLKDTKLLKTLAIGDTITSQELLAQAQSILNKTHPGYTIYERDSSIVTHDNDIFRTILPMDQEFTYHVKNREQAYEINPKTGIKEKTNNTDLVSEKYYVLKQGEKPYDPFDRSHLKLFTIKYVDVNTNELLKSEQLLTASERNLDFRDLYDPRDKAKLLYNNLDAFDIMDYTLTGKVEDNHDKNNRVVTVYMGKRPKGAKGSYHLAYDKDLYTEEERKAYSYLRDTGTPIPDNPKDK
The assay can be described thus: S. pyogenes streptokinase expression inhibitors, potency, dose response, plasminogen activation absorbance, OD405 (AID 1914).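 Also: secreted streptokinase activity via plasminogen activation per viability signal from cell pellet.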 The class given is functional, Streptococcus pyogenes M1 GAS.

In another assay the test system is Streptococcus. Briefly: Group A Streptococcus viability loss, dose response, counter-screen for streptokinase expression inhibitor project, luminescence, BacTiterGlo (AID 1915).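 Also: potency for reduction of bacterial viability or growth.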 The class given is functional, organism-based. The following applies: Streptococcus.
Assay [18] relates to Streptococcus sp. 'group A'. Briefly: growth inhibition of control SK(-) GAS strain, dose response, counter-screen for streptokinase expression inhibitor project, luminescence, kanamycin, BacTiterGlo, confirmation (AID 1900). The class given is functional, organism-based. Conditions: Streptococcus sp. 'group A'.
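For AC50 in this document: cells exposed to compound for roughly 70 hours or longer before luminescence read.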

Chain of Luciferin 4-monooxygenase (P08659 whole entry): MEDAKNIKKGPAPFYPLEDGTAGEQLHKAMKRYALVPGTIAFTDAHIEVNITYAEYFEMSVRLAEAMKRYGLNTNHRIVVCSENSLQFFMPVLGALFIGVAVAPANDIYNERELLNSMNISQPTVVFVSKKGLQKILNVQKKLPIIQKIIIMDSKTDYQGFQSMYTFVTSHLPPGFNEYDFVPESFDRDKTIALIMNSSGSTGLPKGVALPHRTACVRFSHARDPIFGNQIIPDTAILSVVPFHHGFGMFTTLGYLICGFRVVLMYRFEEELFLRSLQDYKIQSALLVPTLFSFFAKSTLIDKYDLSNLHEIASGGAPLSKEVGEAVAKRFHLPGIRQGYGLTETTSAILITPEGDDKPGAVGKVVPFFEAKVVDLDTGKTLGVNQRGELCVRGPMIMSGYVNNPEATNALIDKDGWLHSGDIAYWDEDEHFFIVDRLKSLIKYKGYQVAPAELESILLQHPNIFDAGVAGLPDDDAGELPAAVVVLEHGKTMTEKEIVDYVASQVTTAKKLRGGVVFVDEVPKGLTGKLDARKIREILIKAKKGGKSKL

With `CCOc1cc(C2C3=C(O)CCCC3=NC3=C2C(=O)CCC3)ccc1OCCO` (stereo not drawn), the IC50 in [1] and in assay [2] was > 66 µM (inactive) in each case.

Take `COc1ccc(/C=C/C(=O)NC(=S)Nc2ccc(S(=O)(=O)Nc3nccnc3OC)cc2)cc1`: the IC50 in assay [1] and in assay [2] was > 66 µM (inactive) in each case.

`CC(NC(=O)CCc1nnc(-c2ccc(-c3ccccc3)cc2)o1)c1nccs1` (stereo not drawn): in assay [3], the EC50 was 10 µM (active).

For `COC(=O)C1=C(Nc2ccc(C)cc2)C=C(C)C(C(=O)OC)C1c1ccc(OC)cc1` (stereo not drawn), the EC50 in [4] was > 120 µM (not active); in assay [3] it was 15.5 µM (active); in assay [5] it was 11 µM (active).

On to `CC(C)n1c(SCC(=O)N2c3ccccc3Sc3ccccc32)nc2c1c(=O)n(C)c(=O)n2C`, for which the EC50 is 13.3 µM (active) in assay [4], 13.6 µM (active) in assay [3] and 22.2 µM (active) in assay [5].

Turning to `N#CC1=C(N)N=C(SCc2cccc3ccccc23)C(C(N)=O)C12CCCCC2` (stereo not drawn), the IC50 in assay [1] and in assay [2] was > 66 µM (inactive) throughout.

`CCNS(=O)(=O)c1ccc(NC(=O)Nc2cccc(C(F)(F)F)c2)cc1`: the AC50 in assay [6] was 7.58 µM (active). The results for the EC50 in [7] and in assay [8] were 3.63 µM (active) and > 60 µM (not active), respectively.

On to `Cc1ccc(O)c(NC(=S)NC(=O)/C=C/c2ccccc2)c1`, for which the IC50 in [1] and in assay [2] was > 66 µM (inactive) each time.

With `Fc1ccc(-[n+]2nc(Nc3ccccc3)sc2-c2cccc(Cl)c2Cl)cc1`, the IC50 in assay [1] and in [2] was > 66 µM (inactive) each time.

On to `O=C(CSc1ncn(-c2ccccc2)n1)c1cccs1`, for which the IC50 in [1] and in assay [2] was > 66 µM (inactive) throughout. Moreover, the EC50 in assay [9] is 25.5 µM (active); with H4, > 120 µM (not active); in assay [10], 0.255 µM (active).

With `CCc1ccc(CNC(=O)C2CCN(c3nnc(C)c4c(C)n(-c5ccc(C)cc5)nc34)CC2)cc1`, the AC50 in [6] is 3.85 µM (active).

Consider `CC(C)C(NC(=O)c1ccccc1)C(=O)NC1=NCCS1` (stereo not drawn), for which the IC50 in [1] and in assay [2] was > 66 µM (inactive) in each case.

Consider `Cc1ccc(NC(S)=Nc2cccc3cnccc23)cc1C`, for which the AC50 in assay [6] is 62.1 µM (active).

Regarding `Cc1cc2ncc(S(C)(=O)=O)c(N)n2n1`, the EC50 in assay [4], in assay [3] and in assay [5] was > 120 µM (not active) throughout.

As to `Cn1cccc1/C=C1\SC(=S)N(Nc2ccccc2)C1=O`, the AC50 in assay [6] was 0.978 µM (active). Also, the EC50 in assay [7] was 2.67 µM (active); in assay [8], 3.85 µM (active).

As for `COc1ccc(CC(=O)NCc2ccc(-n3cccc3)cc2)cc1OC`, the EC50 in assay [4] is > 120 µM (not active); in [3], 9.97 µM (active); in assay [5], 6.37 µM (active).

As for `NNC(=O)c1nn(-c2ccccc2)cc1O`, the EC50 in assay [4], in assay [3] and in assay [5] was > 120 µM (not active) each time.

As for `CCOc1ccc(C(=O)c2cc([N+](=O)[O-])ccc2Cl)cc1`, the EC50 (in the assay on BJ [11]; in the assay with BJ [12]; in [13]; in the assay with BJ [14]) was > 150 µM (not active) throughout.

Consider `CC(=O)c1cccc(NC(=O)COC(=O)[C@@H](NC(=O)OCc2ccccc2)C(C)C)c1`, for which the EC50 in assay [15] and in assay [16] was > 112 µM (not active) throughout.

With `O=Nc1c(O)n(Cc2c(Cl)cccc2Cl)c2ccccc12`, the values for the EC50 in assay [17], in assay [15] and in assay [16] were 4.67 µM (active), > 112 µM (not active) and > 112 µM (not active), respectively.

As to `COc1ccccc1CNC(=O)COc1cc2c(c3oc(=O)cc(C)c13)CCC(C)(C)O2`, the EC50 in assay [4] was 16 µM (active); in assay [3], > 120 µM (not active); in assay [5], > 120 µM (not active).

For the molecule `O=C(CC1Oc2ccccc2NC1=O)NC1CC1` (stereo not drawn), the EC50 in assay [15] and in [16] was > 112 µM (not active) in each case.

Take `CCOc1ccccc1-c1nc(C(N)=O)c2nc(O)n(-c3cccc(C)c3)c2n1`: the EC50 in assay [15] and in assay [16] was > 112 µM (not active) in each case.

Turning to `Cc1cc(C(=O)N/N=C/c2cc(Br)ccc2OC(=O)c2ccccc2Cl)[nH]n1`, the EC50 in assay [4] is 13.4 µM (active); in [3], 18.8 µM (active); in assay [5], > 120 µM (not active). Further, in the assay on H9c2, the IC50 is > 79 µM (inactive).

Take `CC1CCC2C(=O)N(c3ccc(NC4CCCCC4)c([N+](=O)[O-])c3)C(=O)C2C1` (stereo not drawn): the AC50 in assay [6] is < 0.16 µM (active).

Take `CC(=O)Oc1ccc(-c2csc(Nc3ccc(Cl)cn3)n2)cc1`: the AC50 in [6] is 5.14 µM (active).

Take `CCOc1cc(S(=O)(=O)n2cc(-c3ccc(F)cc3)c(N)n2)cc(OCC)c1OCC`: the EC50 in assay [4] is 15.8 µM (active); in [3] it was > 120 µM (not active); in [5], > 120 µM (not active).

For the molecule `COC(=O)c1sc(NC(=O)c2c(C)noc2C)nc1C`, the EC50 in [15] was 30.6 µM (active); in [16], > 112 µM (not active).

With `CNC(=S)N/N=C/c1cn(Cc2ccc(C)cc2)c2ccccc12`, the EC50 is 74.1 µM (active) on Streptokinase A, 28 µM (active) with Streptococcus and 5.29 µM (active) in assay [18]. Besides, the AC50 in [6] is 3.07 µM (active).

Turning to `O=C(CSC1=NCCS1)Nc1ccccc1F`, the IC50 in assay [1] and in assay [2] was > 66 µM (inactive) throughout.

For `CNC(S)=NCCc1ccc(OC)c(OC)c1`, the EC50 in assay [15] and in assay [16] was > 112 µM (not active) each time.

For the molecule `COc1ccc(OC)c(S(=O)(=O)N2CCN(C(=O)c3cc(C4CC4)nn3-c3ccccc3)CC2)c1`, the IC50 in assay [1] and in [2] was > 66 µM (inactive) each time.
